In patent US8680113B2, “BMI-1 protein expression modulators” (PTC Therapeutics, Inc., priority 2008, dated 2014) one finds IC50 data, which are given here for 32 molecules.

By IC50 is commonly meant the concentration needed to halve the response being measured. The low end stands for greater potency, the high end for weaker potency.

The experiment relates to Bmi-1. Nature of the experiment: Sandwich ELISA Assay (Bmi-1 ELISA in HT-1080 cells). It counts as cell-based, human. The protocol: Cell Seeding and Compound Treatment (Day 1):
HT-1080 cells were seeded at 8000 cells/well (50 uL) in 96-well tissue culture plates. After the cells become adherent (3-4 hours), 2× diluted stocks of compounds in 50 uL DMEM containing 1% DMSO (final DMSO concentration was 0.5%) were added and the plates were incubated at 37° C. under 5% CO2 for 40-48 hours
ELISA Plate First Antibody Preparation (Day 2):
The First Antibody (Millipore Mouse, monoclonal to mouse Bmi-1, clone F6, catalog #05-637) diluted to 2 ug/mL in PBS was added (100 uL) to each well of a Nunc MaxiSorp 96-well ELISA plate. The plate was covered with a plate seal and allowed to stand overnight.
Cell Lysate Preparation (Day 3):
Fresh 1× Lysis buffer was prepared on the day of the assay as follows: 1 mM EDTA, 150 mM NaCl, 0.5% Triton-X 100, 10 mM NaF, 20 mM B-Glycerophosphate, 1 mM DTT (in PBS, pH 7.2-7.4) and 1×HALT protease inhibitor cocktail (Pierce #78410).
1× Lysis Buffer (40 uL) was added to each well and the plate was shaken for 5-10 minutes on an orbital shaker to allow cell lysis, then Diluent (1% BSA in PBS in 0.5% NP40) (100 uL) was added to each well.
The Bmi-1 standard curve was prepared in Diluent at the following concentrations of protein: 8000, 4000, 2000, 1000, 500, 250, 125, 0 pg/mL The Bmi-1 Recombinant Protein Standard (Novus Biologicals PCGF4 Recombinant Protein (P01), catalog #H00000648-P01) used in the standard curve was stored at −80° C., and on first thaw, diluted to 10 ug/uL in Blocking Buffer (1% BSA in PBS; BSA: Fisher Scientific Catalog #1600-100) before being aliquoted and refrozen at −80° C. Aliquots can be kept at 4° C. and reused after first thaw, but only for 1-2 weeks. The Bmi-1 Recombinant Protein Standard contains a GST-fusion tag and thus will show up on western blots around 70 Kda.
The prepared ELISA plate was washed 3× with Wash Buffer (0.05% Tween-20 in PBS). The final wash was removed from the plate and the plate was blotted dry on paper towels. Blocking Buffer (300 uL) (1% BSA in PBS) was added per well. The plate was covered with a plate seal and incubated at room temperature for 1 hour. The blocked plate was washed 3× with Wash Buffer, the final wash was removed and the plate was blotted dry on paper towels. The previously prepared samples and standards were added (at 100 uL/well) and the plate was covered with a plate seal and incubated at 4° C. overnight.
The prepared ELISA plate was removed from 4° C., incubated at room temperature for 30 minutes, then washed and blotted dry as previously described for Day 3. The Second Antibody (Cell Signaling Rabbit anti-Bmi-1, Cat#2830) diluted to 1:600 in Blocking Buffer was added (100 uL) to each well, except as needed for background control wells. The plate was covered with a plate seal and incubated for 1.5 hrs at room temperature.
The ELISA plate was washed and blotted dry as previously described. The Third Antibody (Cell Signaling HRP conjugated anti-rabbit IgG (CellSignaling, Cat#:7074) diluted to 1:300 in Blocking Buffer was added (100 uL) to each well, except as needed for background control wells. The plate was incubated for 1 hr at room temperature.
The plate was washed and blotted dry as previously described, then prepared TMB substrate (TMB substrate kit, Pierce catalog #34021) (prepared by mixing kit reagents 1:1) (100 uL) was added per well. The plate was incubated for 20-30 minutes at room temperature in the dark, then Stop Solution (2 M sulfuric acid in water) (50 uL) was added per well. The plates were read at OD450 (experimental) and OD570 (reference).
As for “1-(3-{[4-(6-fluoro-2-methylimidazo[1,2-a]pyridin-3-yl)-1,3-thiazol-2-yl]amino}phenyl)ethanone [Cpd 238]”, the IC50 is below 500 nM. With “1-(4-{[4-(imidazo[1,2-a]pyrimidin-3-yl)pyrimidin-2-yl]amino}phenyl)ethanone [Cpd 258]” the figure was below 500 nM; with `CCOc1ccc(Nc2nc(-c3c(C)nc4ncccn34)cs2)cc1` [Cpd 13, N-(4-ethoxyphenyl)-4-(2-methylimidazo[1,2-a]pyrimidin-3-yl)thiazol-2-amine], below 500 nM; with `COc1ccc(Nc2nc(-c3c(C)nc4cc(C)ccn34)cs2)cc1` [Cpd 17, 4-(2,7-dimethylimidazo[1,2-a]pyridin-3-yl)-N-(4-methoxyphenyl)thiazol-2-amine], below 500 nM. The value for `COc1cc(Cl)c(Nc2nc(-c3c(C)nc4ncccn34)cs2)c(Cl)c1` [Cpd 19, N-(2,6-dichloro-4-methoxyphenyl)-4-(2-methylimidazo[1,2-a]pyrimidin-3-yl)thiazol-2-amine] was 500 to 1000 nM; that for `COc1cc(F)c(Nc2nc(-c3c(C)nc4ncccn34)cs2)c(F)c1` [Cpd 20, N-(2,6-difluoro-4-methoxyphenyl)-4-(2-methylimidazo[1,2-a]pyrimidin-3-yl)thiazol-2-amine] was 1000 to 3000 nM. In the case of `Cc1cc(Br)c(Nc2nc(-c3c(C)nc4ncccn34)cs2)c(Br)c1` [Cpd 21, N-(2,6-dibromo-4-methylphenyl)-4-(2-methylimidazo[1,2-a]pyrimidin-3-yl)thiazol-2-amine], the IC50 is below 500 nM.

Regarding `Cc1nc2ncccn2c1-c1csc(Nc2c(Br)cc(Br)cc2Br)n1` [Cpd 22, 4-(2-methylimidazo[1,2-a]pyrimidin-3-yl)-N-(2,4,6-tribromophenyl)thiazol-2-amine], the IC50 is below 500 nM.

In turn, `COCCOc1cc(Br)c(Nc2nc(-c3c(C)nc4ncccn34)cs2)c(Br)c1` [Cpd 23, N-(2,6-dibromo-4-(2-methoxyethoxy)phenyl)-4-(2-methylimidazo[1,2-a]pyrimidin-3-yl)thiazol-2-amine] yielded an IC50 of 1000 to 3000 nM. In turn, `Cc1ccn2c(-c3csc(Nc4cccc(O)c4)n3)c(C)nc2c1` [Cpd 31, 3-{[4-(2,7-dimethylimidazo[1,2-a]pyridin-3-yl)-1,3-thiazol-2-yl]amino}phenol] yielded a half-maximal inhibitory concentration (IC50) below 500 nM. In the case of `Cc1ccc(Nc2nc(-c3c(C)nc4cc(C)ccn34)cs2)cc1` [Cpd 32, 4-(2,7-dimethylimidazo[1,2-a]pyridin-3-yl)-N-(4-methylphenyl)-1,3-thiazol-2-amine], the 50% inhibitory concentration (IC50) was below 500 nM.

Molecule `CC(=O)c1ccc(Nc2nc(-c3c(C)nc4cc(C)ccn34)cs2)cc1` [Cpd 33, 1-(4-{[4-(2,7-dimethylimidazo[1,2-a]pyridin-3-yl)-1,3-thiazol-2-yl]amino}phenyl)ethanone] had an IC50 below 500 nM. Molecule `CC(=O)c1ccc(Nc2nc(-c3c(C)nc4ncccn34)cs2)cc1` [Cpd 34, 1-(4-{[4-(2-methylimidazo[1,2-a]pyrimidin-3-yl)-1,3-thiazol-2-yl]amino}phenyl)ethanone] registered a half-maximal inhibitory concentration (IC50) below 500 nM. In turn, `Cc1nc2ccccn2c1-c1csc(Nc2cccc(O)c2)n1` [Cpd 35, 3-{[4-(2-methylimidazo[1,2-a]pyridin-3-yl)-1,3-thiazol-2-yl]amino}phenol] yielded an IC50 below 500 nM. The molecule `Cc1nc2ccccn2c1-c1csc(Nc2ccc(O)cc2)n1` [Cpd 36, 4-{[4-(2-methylimidazo[1,2-a]pyridin-3-yl)-1,3-thiazol-2-yl]amino}phenol] returned a half-inhibitory concentration (IC50) below 500 nM. `Cc1nc2ncccn2c1-c1csc(Nc2ccc3c(c2)OCO3)n1` [Cpd 37, N-(1,3-benzodioxol-5-yl)-4-(2-methylimidazo[1,2-a]pyrimidin-3-yl)-1,3-thiazol-2-amine]: the 50% inhibitory concentration (IC50) was below 500 nM. In the case of `Cc1nc2ncccn2c1-c1csc(Nc2c(Cl)cccc2Cl)n1` [Cpd 38, N-(2,6-dichlorophenyl)-4-(2-methylimidazo[1,2-a]pyrimidin-3-yl)-1,3-thiazol-2-amine], the IC50 was below 500 nM.

Molecule `Cc1nc2ncccn2c1-c1csc(N(C)c2ccc3c(c2)OCO3)n1` [Cpd 40, N-(1,3-benzodioxol-5-yl)-N-methyl-4-(2-methylimidazo[1,2-a]pyrimidin-3-yl)-1,3-thiazol-2-amine] registered an IC50 below 500 nM.

In turn, `Cc1nc2ccccn2c1-c1csc(Nc2ccc(N(C)C)cc2)n1` [Cpd 41, N,N-dimethyl-N′-[4-(2-methylimidazo[1,2-a]pyridin-3-yl)-1,3-thiazol-2-yl]benzene-1,4-diamine] registered an IC50 below 500 nM. With `Cc1nc2ncccn2c1-c1ccnc(Nc2ccc(N(C)C)cc2)n1` [Cpd 43, N,N-dimethyl-N′-[4-(2-methylimidazo[1,2-a]pyrimidin-3-yl)pyrimidin-2-yl]benzene-1,4-diamine] the figure was below 500 nM. `COc1ccc(Nc2nc(-c3c(C)nc4ccccn34)cs2)cc1` [Cpd 44, N-(4-methoxyphenyl)-4-(2-methylimidazo[1,2-a]pyridin-3-yl)-1,3-thiazol-2-amine] showed an IC50 below 500 nM. The molecule `COc1ccc(Nc2nc(-c3c(C)nc4ncccn34)cs2)cc1F` [Cpd 45, N-(3-fluoro-4-methoxyphenyl)-4-(2-methylimidazo[1,2-a]pyrimidin-3-yl)-1,3-thiazol-2-amine] showed an IC50 below 500 nM. As to `COc1ccc(Nc2nc(-c3c(C)nc4ncccn34)cs2)cc1Cl` [Cpd 46, N-(3-chloro-4-methoxyphenyl)-4-(2-methylimidazo[1,2-a]pyrimidin-3-yl)-1,3-thiazol-2-amine], the half-inhibitory concentration (IC50) is below 500 nM. On to `COc1ccc(N(C)c2nccc(-c3c(C)nc4ncccn34)n2)cc1` [Cpd 47, N-(4-methoxyphenyl)-N-methyl-4-(2-methylimidazo[1,2-a]pyrimidin-3-yl)pyrimidin-2-amine], for which the IC50 was below 500 nM. Take `Cc1nc2ncccn2c1-c1csc(Nc2ccc(Br)cc2)n1` [Cpd 48, N-(4-bromophenyl)-4-(2-methylimidazo[1,2-a]pyrimidin-3-yl)-1,3-thiazol-2-amine]: the IC50 is below 500 nM. In the case of `COc1ccc(Nc2nc(-c3c(C)nc4ccccn34)cs2)cc1Cl` [Cpd 50, N-(3-chloro-4-methoxyphenyl)-4-(2-methylimidazo[1,2-a]pyridin-3-yl)-1,3-thiazol-2-amine], the 50% inhibitory concentration (IC50) was below 500 nM. With `COc1ccc(Nc2nc(-c3c(C)nc4ccccn34)cs2)cc1F` [Cpd 51, N-(3-fluoro-4-methoxyphenyl)-4-(2-methylimidazo[1,2-a]pyridin-3-yl)-1,3-thiazol-2-amine] the figure was below 500 nM; with `COCCOc1ccc(Nc2nc(-c3c(C)nc4ccccn34)cs2)cc1` [Cpd 52, N-[4-(2-methoxyethoxy)phenyl]-4-(2-methylimidazo[1,2-a]pyridin-3-yl)-1,3-thiazol-2-amine], below 500 nM. With `Cc1nc2ccccn2c1-c1csc(Nc2ccc(I)cc2)n1` [Cpd 53, N-(4-iodophenyl)-4-(2-methylimidazo[1,2-a]pyridin-3-yl)-1,3-thiazol-2-amine] the figure was below 500 nM; with `COCCOc1cc(Br)c(Nc2nc(-c3c(C)nc4ccccn34)cs2)c(Br)c1` [Cpd 54, N-[2,6-dibromo-4-(2-methoxyethoxy)phenyl]-4-(2-methylimidazo[1,2-a]pyridin-3-yl)-1,3-thiazol-2-amine], below 500 nM; with `CC(=O)c1ccc(Nc2nc(-c3c(C)nc4ccccn34)cs2)cc1` [Cpd 55, 1-(4-{[4-(2-methylimidazo[1,2-a]pyridin-3-yl)-1,3-thiazol-2-yl]amino}phenyl)ethanone], below 500 nM. With `Cc1nc2ccccn2c1-c1csc(Nc2ccc3c(c2)OCO3)n1` [Cpd 56, N-(1,3-benzodioxol-5-yl)-4-(2-methylimidazo[1,2-a]pyridin-3-yl)-1,3-thiazol-2-amine], the IC50 was below 500 nM.
